Residues, ends and D or L forms follow the SMILES beside them.
How the values were obtained:
MEC-1 cells = assay: Cell viability MTT, MEC-1; assay type: cell-based, human; settings: MEC-1, 24 h, RPMI, n ≥ 9
Protocol: Chronic lymphocytic leukaemia-derived MEC-1 cells were cultured in suspension using complete RPMI (EuroClone), supplemented with 100 U ml^−1 penicillin (Sigma), 100 μg ml^−1 streptomycin (Sigma), 2 mM L-glutamine and 10% (v/v) foetal bovine serum (FBS, EuroClone). A549 human lung carcinoma epithelial cells and immortalized human keratinocytes (HaCaT) were grown in adhesion in complete high glucose Dulbecco’s MEM (DMEM, EuroClone) supplemented with 100 U ml^−1 penicillin (Sigma), […] streptomycin (Sigma), 2 mM L-glutamine and 10% (v/v) of FBS. […] All cell lines were counted in a Bürker chamber and diluted to the desired working concentrations.
Cell viability was evaluated by tetrazolium salt (MTT, or MTS for HUVECs only) tests. […] The next day, absorbance was measured at 570 nm using a Nanoquant Infinite-M200Pro plate reader (Tecan, Switzerland).
HUVECs, 7500 cells per well, were seeded in HESFM with 10% FBS in a 96-well flat-bottomed microtitre plate (EuroClone SpA, Italy). […] The plate was then incubated for 2 h at 37°C in a humidified 5% CO2 atmosphere, and the absorbance was measured at 490 nm, using a spectrophotometer (PowerWaveX, Bio-Tek Instruments). The cytotoxicity was calculated by comparing the absorbance of peptide-treated samples with that of the untreated control and expressed in percentage of vitality. […]

zebrafish embryos = assay: In vivo toxicity in zebrafish embryos; settings: for mortality of larvae: within 72 h, groups of 30, at least three independent experiments
Protocol: All experimental procedures were performed in compliance with relevant laws and institutional guidelines and were performed under the Italian Ministerial Approval (code 1FF80.N.A5X). Zebrafish eggs were placed in E3 Medium (5 mM NaCl, 0.17 mM KCl, 0.33 mM CaCl2, 0.33 mM MgSO4) and incubated at 28°C. Twenty-four hours post-fertilization (hpf), the eggs were manually dechorionated. Later, embryos were placed in E3 Medium supplemented with a final concentration of 0.2 mM phenylthiourea (PTU, Sigma-Aldrich Co.) to inhibit the production of melanin. Forty-eight hpf embryos were anaesthetized using tricaine at a final concentration of 0.02% (v/v) and placed on agarose plates, to remove the excess water and to facilitate injections. Each condition for toxicity evaluation and bacteraemia model was tested on groups of 30 embryos in at least three independent experiments. Only for biodistribution assay, groups of 10 embryos were used for two independent experiments. The injections of peptide or bacteria were performed in a volume of 4.6 nl delivered in the duct of Cuvier of embryos using capillary glass and a Nanoject II Auto-Nanoliter Injector (Drummond Scientific Co., Broomall, PA, USA) and a SteREO Microscope Discovery.V8 (Zeiss, Oberkochen, Germany, UE).
In vivo toxicity of B7-005 was evaluated by injecting 4.6 nl of sterile PBS containing increasing concentrations of the peptide (up to 64 mg kg^−1) in the duct of Cuvier of embryos. PBS only was injected in untreated control groups. The toxicity of the compound was assessed evaluating the mortality of larvae, kept in E3 medium at 28°C, within 72 h after injection.

## CC[C@H](C)[C@H](NC(=O)[C@H](CCCNC(=N)N)NC(=O)[C@@H](N)Cc1c[nH]c2ccccc12)C(=O)N[C@@H](CCCNC(=N)N)C(=O)N[C@@H](CCCNC(=N)N)C(=O)N[C@@H](CCCNC(=N)N)C(=O)N[C@@H](Cc1c[nH]c2ccccc12)C(=O)N1CCC[C@H]1C(=O)N[C@@H](CCCNC(=N)N)C(=O)N[C@@H](CC(C)C)C(=O)N1CCC[C@H]1C(=O)N[C@@H](CCCNC(=N)N)C(=O)N1CCC[C@H]1C(=O)N[C@@H](CCCNC(=N)N)C(=O)N[C@@H](Cc1c[nH]c2ccccc12)C(=O)N[C@@H](CCCNC(=N)N)C(=O)O [B7-005] (H-WRIRRRWPRLPRPRWR-OH)
MEC-1 cells
  IC50: ~48 µM
Zebrafish embryos; 24 mg kg^−1, injected in duct of Cuvier, untreated control 10%
  mortality of larvae: ≤ 20%
Zebrafish embryos; 32 mg kg^−1, injected in duct of Cuvier
  mortality of larvae: ~ 40%
Zebrafish embryos; injected in duct of Cuvier, 72 h
  lowest concentration significantly reducing viability of larvae: 32 mg/kg
Zebrafish embryos; injected in duct of Cuvier, zebrafish embryos, 72 h
  highest tolerated amount: 24 mg/kg
